What all share (settings): stated in words only
A short description of one data set: bioavailability. The data set is classed as in vivo.
Data set [1] concerns the target p-glycoprotein (PGP) transporter (Homo sapiens, UniProt P08183). As to the kind of experiment: affinity for p-glycoprotein transporter.
The next data set has as its target hERG channel (Homo sapiens, UniProt Q12809). As to the kind of experiment: activity in the hERG channel.
Another data set can be described thus: first pass metabolism.

hERG channel, sequence (Q12809 whole entry): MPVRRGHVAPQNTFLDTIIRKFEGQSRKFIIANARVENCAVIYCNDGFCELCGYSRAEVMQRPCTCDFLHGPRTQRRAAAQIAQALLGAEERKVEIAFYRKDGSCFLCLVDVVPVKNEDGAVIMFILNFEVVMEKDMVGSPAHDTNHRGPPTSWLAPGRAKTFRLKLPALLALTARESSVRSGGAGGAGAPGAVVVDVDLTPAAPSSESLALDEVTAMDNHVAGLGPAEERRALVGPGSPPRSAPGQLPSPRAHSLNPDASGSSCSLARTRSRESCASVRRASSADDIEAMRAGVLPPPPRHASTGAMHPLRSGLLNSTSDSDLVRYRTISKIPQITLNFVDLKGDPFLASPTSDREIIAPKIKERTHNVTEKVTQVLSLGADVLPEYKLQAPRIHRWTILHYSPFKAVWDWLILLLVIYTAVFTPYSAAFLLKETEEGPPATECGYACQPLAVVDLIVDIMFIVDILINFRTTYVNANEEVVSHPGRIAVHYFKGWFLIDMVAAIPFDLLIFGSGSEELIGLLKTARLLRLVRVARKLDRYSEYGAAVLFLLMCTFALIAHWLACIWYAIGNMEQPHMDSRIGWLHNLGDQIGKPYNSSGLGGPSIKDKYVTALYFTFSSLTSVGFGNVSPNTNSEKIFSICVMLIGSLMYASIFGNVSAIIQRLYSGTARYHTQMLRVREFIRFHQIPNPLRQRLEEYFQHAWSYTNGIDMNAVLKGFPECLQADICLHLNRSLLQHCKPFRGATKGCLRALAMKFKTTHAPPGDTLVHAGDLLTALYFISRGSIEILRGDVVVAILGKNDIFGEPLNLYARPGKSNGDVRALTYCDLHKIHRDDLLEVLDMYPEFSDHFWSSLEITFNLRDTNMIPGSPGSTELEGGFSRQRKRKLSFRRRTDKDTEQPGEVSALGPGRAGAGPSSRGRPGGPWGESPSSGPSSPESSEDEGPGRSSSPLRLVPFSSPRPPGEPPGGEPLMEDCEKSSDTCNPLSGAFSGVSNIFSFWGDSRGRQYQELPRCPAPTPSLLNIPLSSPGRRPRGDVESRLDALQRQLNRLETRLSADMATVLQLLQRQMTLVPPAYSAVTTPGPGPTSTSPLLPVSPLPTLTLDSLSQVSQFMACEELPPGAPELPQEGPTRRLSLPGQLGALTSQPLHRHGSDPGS
p-glycoprotein (PGP) transporter, sequence (P08183 whole entry): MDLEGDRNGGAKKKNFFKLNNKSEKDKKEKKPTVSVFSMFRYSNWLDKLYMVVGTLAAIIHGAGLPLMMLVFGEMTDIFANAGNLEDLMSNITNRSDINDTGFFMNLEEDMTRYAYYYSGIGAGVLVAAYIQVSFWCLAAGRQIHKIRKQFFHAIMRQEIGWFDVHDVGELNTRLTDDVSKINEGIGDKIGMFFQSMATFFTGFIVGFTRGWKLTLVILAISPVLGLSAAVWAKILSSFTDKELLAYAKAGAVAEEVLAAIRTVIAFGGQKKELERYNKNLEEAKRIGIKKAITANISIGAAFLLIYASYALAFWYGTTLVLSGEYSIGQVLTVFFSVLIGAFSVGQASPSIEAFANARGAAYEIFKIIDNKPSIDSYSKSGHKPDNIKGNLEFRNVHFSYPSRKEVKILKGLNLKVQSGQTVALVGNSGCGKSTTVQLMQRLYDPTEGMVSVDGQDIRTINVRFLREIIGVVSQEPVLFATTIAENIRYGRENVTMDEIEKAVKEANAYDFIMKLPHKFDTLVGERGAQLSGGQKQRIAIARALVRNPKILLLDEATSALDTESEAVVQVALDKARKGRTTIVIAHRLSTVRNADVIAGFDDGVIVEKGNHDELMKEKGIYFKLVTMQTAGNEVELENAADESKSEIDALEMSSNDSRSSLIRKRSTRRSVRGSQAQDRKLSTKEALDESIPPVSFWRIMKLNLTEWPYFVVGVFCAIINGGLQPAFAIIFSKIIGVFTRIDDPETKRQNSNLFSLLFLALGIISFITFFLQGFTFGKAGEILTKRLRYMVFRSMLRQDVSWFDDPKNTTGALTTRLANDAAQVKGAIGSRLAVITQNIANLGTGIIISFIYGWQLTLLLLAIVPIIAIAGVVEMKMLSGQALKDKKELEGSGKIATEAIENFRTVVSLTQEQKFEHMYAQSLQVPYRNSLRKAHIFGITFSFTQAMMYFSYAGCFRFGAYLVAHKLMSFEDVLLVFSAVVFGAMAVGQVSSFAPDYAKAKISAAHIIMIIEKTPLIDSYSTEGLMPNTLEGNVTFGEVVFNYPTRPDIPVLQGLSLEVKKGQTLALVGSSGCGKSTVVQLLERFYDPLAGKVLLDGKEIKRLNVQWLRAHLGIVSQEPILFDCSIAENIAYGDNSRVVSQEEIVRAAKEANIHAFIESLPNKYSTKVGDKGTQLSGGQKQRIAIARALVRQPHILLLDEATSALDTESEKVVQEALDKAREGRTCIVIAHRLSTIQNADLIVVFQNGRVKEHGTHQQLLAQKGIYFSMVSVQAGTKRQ

In the case of `CC(C)(F)Cn1ncc2cc(Oc3ccc(F)cc3F)c(C(=O)N[C@H]3CCNC3=O)cc21` [Example 27, (S)-5-(2,4-difluorophenoxy)-1-(2-fluoro-2-methylpropyl)-N-(2-oxopyrrolidin-3-yl)-1H-indazole-6-carboxamide], in “bioavailability”, the bioavailability result was “relatively good”. In addition, in data set [1], the “affinity for p-glycoprotein (PGP) transporter (which affects cell permeability)” value is “low affinity”. For the same compound, the “activity in the hERG channel (a predictor for cardiac side effects)” value on hERG channel was “low activity”. Also, the first pass metabolism entry in “first pass metabolism” is on record as “relatively low”.

(Values after patent US8026233B2, “P38 inhibitors and methods of use thereof” (Array BioPharma Inc., priority 2006, dated 2011).)
